Test results published in patent US7541141B2, “Method of using estrogen-related receptor alpha (ERRα) status to determine prognosis, treatment strategy and predisposition to breast cancer, and method of using ERRα as a therapeutic target for the treatment of breast cancer” (Wisconsin Alumni Research Foundation, priority 1997, dated 2009).

T1: ERRα1 (Homo sapiens, UniProt P11474)
T1 construct: expressed in transfected cells; host or cells: COS cells (whole-cell extract)
T1 sequence (P11474 1-423): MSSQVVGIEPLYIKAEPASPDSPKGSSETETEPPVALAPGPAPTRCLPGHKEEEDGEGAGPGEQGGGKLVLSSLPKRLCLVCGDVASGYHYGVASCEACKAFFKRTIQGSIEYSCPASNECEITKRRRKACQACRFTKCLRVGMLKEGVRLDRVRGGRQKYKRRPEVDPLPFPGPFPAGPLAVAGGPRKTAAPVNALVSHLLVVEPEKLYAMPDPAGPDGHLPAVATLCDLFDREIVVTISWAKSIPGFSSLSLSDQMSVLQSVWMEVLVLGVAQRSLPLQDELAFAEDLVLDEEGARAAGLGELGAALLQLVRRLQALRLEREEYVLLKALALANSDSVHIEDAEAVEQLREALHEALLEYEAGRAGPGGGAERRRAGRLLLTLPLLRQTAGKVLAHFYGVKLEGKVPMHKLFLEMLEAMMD

B1: ERRα176-423: amino-terminal-deleted ERRα1 variant (residues 76-423) lacking the A/B domain (protein)
chain: MKRLCLVCGDVASGYHYGVASCEACKAFFKRTIQGSIEYSCPASNECEITKRRRKACQACRFTKCLRVGMLKEGVRLDRVRGGRQKYKRRPEVDPLPFPGPFPAGPLAVAGGPRKTAAPVNALVSHLLVVEPEKLYAMPDPAGPDGHLPAVATLCDLFDREIVVTISWAKSIPGFSSLSLSDQMSVLQSVWMEVLVLGVAQRSLPLQDELAFAEDLVLDEEGARAAGLGELGAALLQLVRRLQALRLEREEYVLLKALALANSDSVHIEDAEAVEQLREALHEALLEYEAGRAGPGGGAERRRAGRLLLTLPLLRQTAGKVLAHFYGVKLEGKVPMHKLFLEMLEAMMD
B2: ERRα11-173: carboxyl-terminal-deleted ERRα1 variant (residues 1-173) retaining A/B and DNA binding domains, lacking E/F domains (protein)
chain: MSSQVVGIEPLYIKAEPASPDSPKGSSETETEPPVALAPGPAPTRCLPGHKEEEDGEGAGPGEQGGGKLVLSSLPKRLCLVCGDVASGYHYGVASCEACKAFFKRTIQGSIEYSCPASNECEITKRRRKACQACRFTKCLRVGMLKEGVRLDRVRGGRQKYKRRPEVDPLPFP

tested on: ERE-dependent transcription in MCF-7 cells; assay: p3xERE-TK-luc luciferase reporter, transient transfection; format: cell-based, human; details: 0.12 or 0.25 μg expression plasmid, whole FBS, 48 h
Experimental: Transient Transfections and Luciferase Assays: To assess the role ERRα plays in regulating transcription of an ERE-containing promoter, MCF-7 or HeLa cells grown in 12-well tissue culture plates were co-transfected in parallel with 0.5 μg of pTK-luc versus p3xERE-TK-luc along with the indicated amounts of the empty cloning vector pcDNA3.1, the ERRα1 expression plasmid pcDNA3.1-hERRα1, or mutant variants thereof. Transfections were performed with the aid of the TransIT LT1 transfection reagent (PanVera, Madison, Wis.) as previously described (35). To examine the effects of ER ligands, cells were maintained in stripped medium for 48 h before transfection and the addition of 17β-estradiol (E2) (Sigma) or the pure anti-estrogen ICI-182,780 (Astra Zeneca, London, UK) dissolved in ethanol and diluted in medium to obtain the indicated concentrations. Cells were harvested 48 h post-transfection, and lysates were assayed for luciferase activity normalized to protein concentration as previously described (36).
ERRα Represses Transcription in MCF-7 Cells: Because ERRα can interfere with the binding of ERα to this ERE, might it affect estrogen-responsive transcription? To answer this question, we co-transfected ERα-positive mammary MCF-7 cells in parallel with p3xERE-TK-luc, a reporter plasmid containing three tandem copies of this ERE (FIG. 14A) or the ERE-negative control plasmid, pTK-luc, together with 0.12 or 0.25 μg of the ERRα1 expression plasmid, pcDNA3.1-hERRα1, or the empty parental expression plasmid, pcDNA3.1. After incubation for 48 h in medium containing whole FBS, the cells were harvested and assayed for luciferase activity. The presence of the EREs conferred an about 150-fold increase in transcriptional activity above the level observed in the cells transfected with the ERE-negative reporter plasmid (FIG. 14B). […] Thus, ERRα inhibits the estrogen-responsive activation of transcription from this ERE-containing promoter in this ER-positive MCF-7 cell line.
ERRα Modulates Estrogen-responsiveness in MCF-7 Cells: To directly examine the effect of ERRα on the response to estrogen, MCF-7 cells were cultured in medium containing estrogen-free charcoal-stripped FBS and cotransfected as described above but in the absence or presence of E2. […] Once again, overexpression of ERRα repressed ERE-dependent transcription approximately 3-fold while having little if any effect on transcription of the control reporter (FIG. 15A).

With B1 the “Repression of ERE-dependent transcription by overexpression” value was 2-3 fold.
B2 was tested, and the “Repression of ERE-dependent transcription by overexpression” value was “failed to repress”.

same assay, conditions: 1×10^−8 M E2, charcoal-stripped FBS

In the case of `C[C@]12CC[C@@H]3c4ccc(O)cc4CC[C@H]3[C@@H]1CC[C@@H]2O` [E2, 17β-estradiol, reference compound], the “Additional stimulation of ERE-dependent transcription over level with 10^−10 M E2” value is reported as 3 fold.

same assay, conditions: 1×10^−8 M E2, charcoal-stripped FBS, 48 h

With `C[C@]12CC[C@@H]3c4ccc(O)cc4CC[C@H]3[C@@H]1CC[C@@H]2O` [E2, 17β-estradiol, reference compound] the “ERE-dependent transcription above activity without exogenous E2” value was “approximately 30 fold”.

same assay, conditions: 1×10^−10 M E2, charcoal-stripped FBS, 48 h

For `C[C@]12CC[C@@H]3c4ccc(O)cc4CC[C@H]3[C@@H]1CC[C@@H]2O` [E2, 17β-estradiol, reference compound], the “Induction of transcriptional activity of ERE-containing reporter above level without exogenous E2” value was “approximately 10 fold”.

biological target: T1, ERRα1; assay: Quantitative competition EMSA of unlabeled oligodeoxynucleotides against 32P-labeled reference consensus ERRE; format: binding; details: relative to reference consensus ERRE; reciprocal of fold molar excess of competitor reducing shifted probe by 50%; COS whole cell extracts
Experimental: Quantitative gel-mobility-shift assays: DNA binding was assayed in 20 μl of a buffer containing 10 mM HEPES (pH 7.5), 2.5 mM MgCl2, 50 μM EDTA, 1 mM dithiothreitol, 6% glycerol and 100 ng/μl of poly(dI-dC)·poly(dI-dC). Competition binding assays included unlabeled competitor oligonucleotide as well. […] Supershift assays contained 1 μl of a 1:10 dilution of whole antiserum. All components were mixed prior to the addition of protein. The final mixtures were incubated on ice for 15 minutes, followed by 25° C. for 15 minutes prior to separation by electrophoresis at 4° C. for 2 hours through a non-denaturing 4% polyacrylamide gel at 160 volts. Quantitation was performed with a PhosphorImager (Molecular Dynamics). The relative affinities of different sequences for binding by the protein were determined from the moles of unlabeled competitor oligonucleotide needed to reduce the fraction of probe shifted to 50%.
Knowing which genes are transcriptionally modulated by ERR may help to clarify ERR's potential role in breast cancer. To identify potential ERR-responsive genes, we examined the transcriptional regulatory regions of genes known to be involved in breast cancer for sequences capable of being bound by ERR. […] This sequence is a half-site of the consensus palindromic estrogen response element (ERE, 5′-AGGTCAnnnTGACCT (SEQ ID NO:32)) with a 3-base pair extension at the 5′ end. Searching sequence databases (the EPD Eukaryotic Promoter Database available on line from the Swiss Institute of Bioinformatics (17), and Genbank available on line from the National Center for Biotechnology Information, National Library of Medicine, National Institute of Health) facilitated the location of this consensus and similar non-consensus ERREs in human gene promoters, which were selected and tested experimentally for whether they contained authentic ERR-binding sites. Using quantitative competitive EMSAs performed similarly as described in FIG. 5 of Example 1, we identified many authentic ERR-binding sites that exist in the promoters of important genes implicated in breast cancer. These sequences and ERR's affinity for binding these sites relative to a reference consensus ERRE are shown in Table 3 (Location, distance of the ERRE sequence from the gene's transcriptional start site; Ref, reference of the gene's prognostic status or relevance to human breast cancer).

Compared with “AAAATTGTTTTGTCTAGGTCATTTGCATTTTCA (chemistry not given here) [PgR site 1]”, “AGAACATCCCTTTTAAGGTCAGAACAAAGGTAT (chemistry not given here) [BRCA2]” is lower in “Relative binding affinity (RBA) of ERRα1 for DNA sequence” value (from here on “Relative binding affinity (RBA)”): 0.14 for the first, 0.08 for the second.

First: TCGAGAGCAGTGGCGATTTGTCAAGGTCACACAGTGAG (DNA, backbone not given here) [Reference ERRE, reference compound]
Second: ATGTTTGGTATGAAAAGGTCACATTTTATATTC (chemistry not given here) [ERα]
The “Relative binding affinity (RBA)” value of the first is higher: 1.00 for the first, 0.11 for the second.

First: GTAGGACCTGGATTAAGGTCAGGTTGGAGGAGA (chemistry not given here) [pS2 site 2]
Second: CCTCAGAGTGGCTCAGGGTCAGAGAAGGTAGAG (chemistry not given here) [Pr1 site 3]
The “Relative binding affinity (RBA)” value of the first is higher: 0.12 for the first, 0.07 for the second.

First: TCCCTTCCCCCTGCAAGGTCACGGTGGCCACCC (chemistry not given here) [pS2 site 1]
Second: CTGTCGGCAGGAACAAGGTCACCCCTTGGCGTT (chemistry not given here) [IGF2 site 2]
The “Relative binding affinity (RBA)” value of the first is higher: 0.49 for the first, 0.25 for the second.

First: GGTGCTCCCACTTAGAGGTCACGCGCGGCGTCG (chemistry not given here) [ERβ]
Second: TGGCATATTGGGTGAAGGTCAAGGGAGTGGCTT (chemistry not given here) [Cathepsin D]
The “Relative binding affinity (RBA)” value of the first is higher: 0.54 for the first, 0.49 for the second.

Going from “CAAATAATGGGCTGAAGGTGAACTATCTTTACT (chemistry not given here) [EGF]” to “GGGAGTTCAGGGTAAAGGTCACGGGGCCGGGGC (chemistry not given here) [hMDM2]”, the “Relative binding affinity (RBA)” value rises from 0.14 to 0.35.

Compared with “CTCCCATCTCACTTAAGGTCAAAGCCAGGGTCC (chemistry not given here) [elk1]”, “GCTCCGGCTCGCTGAAGGTCACAGCCGAGGCGA (chemistry not given here) [IGF1R]” is higher in “Relative binding affinity (RBA)” value: 0.22 for the first, 0.36 for the second.

“GTAATTGCTGTACGAAGGTCAGAATCGCTACCT (chemistry not given here) [BRCA1]” and “CCTGAGACTCTACCAAGGTCAGAAATGCTGCAA (chemistry not given here) [aromatase]” are the same in “Relative binding affinity (RBA)” value: 0.17 for the first, 0.17 for the second.

Compared with “CAAATTTGAAACTAAAGGTCACAGGCTGCTTTA (chemistry not given here) [Pr1 site 2]”, “AAAGGAACTTTCCCAAGGTCACAGAGCTGAGCT (chemistry not given here) [ErbB2]” is higher in “Relative binding affinity (RBA)” value: 0.33 for the first, 1.01 for the second.

Going from “TCCTTGCTAAACCCAAGGTCATAAATCTTTTCT (chemistry not given here) [PgR site 2]” to “TCCTAAGGACTGTCAAGGTCATCAAATACAAGG (chemistry not given here) [PgR site 3]”, the “Relative binding affinity (RBA)” value rises from 0.91 to 1.45.

Going from “GCGAGGAAAGCGTGAAGGTGATTTCAGTTAATT (chemistry not given here) [cyclin D1]” to “TGTCCATTTTCTTCTAGGTCAACCCCAATGGTA (chemistry not given here) [Pr1 site 1]”, the “Relative binding affinity (RBA)” value falls from 0.07 to 0.06.

In the case of “GGTGGACGCTGCTGAAGGTGAGCGAGACCCCGG (chemistry not given here) [IGF2 site 3]”, the “Relative binding affinity (RBA)” value is reported as 0.06.
